According to PMC5641083, “Blockage of FOXP3 transcription factor dimerization and FOXP3/AML1 interaction inhibits T regulatory cell activity: sequence optimization of a peptide inhibitor” (Oncotarget, 2017):
Like-named read-outs stand apart in the source and are kept apart here. Where a SMILES comes first, the peptide text is derived from it.

Legend:
[1] = system: Hepa-129 cells; assay: Hepa-129 subcutaneous tumor rejection model; type: in vivo, C3H/HeN mice; settings: Hepa-129 s.c.
Experimental: Seven days after Hepa-129 cells injection, when the tumor reached 5 mm in diameter, mice were treated with CM-1215 (from days 7 to 16, 50μg/day/mouse) or anti-PD1 antibodies (50 μg/mice) at days 7 and 14. A group of mice treated with anti-PD1 received also 10 consecutive i.p. administrations of CM-1215 from days 7 to 16 (50 μg/day/mouse).
For tumor rejection experiments, Hepa-129 cells (10^6 cells/mouse), were injected subcutaneously (sc) in C3H/HeN mice (n = 6). Ten days later, when the tumor reached 5 mm in diameter, mice were randomly divided into different experimental groups. A group of mice were treated i.p. with anti-PD1 antibodies (50 μg/mouse). Antibody administration was repeated one week after this first administration. A group of mice treated with anti-PD1 also received the cyclic peptide CM-1215 from days 10 to 20 (50 μg/mice/day). Tumor size, presented as the average of two perpendicular diameters (millimetres), was measured at regular intervals. Mice were sacrificed when the mean tumor diameter was greater than 20 mm. […] Tumor size was monitored twice a week with a calliper and it was expressed according to the formula V = (length × width^2)/2. […]

[2] = Metabolic stability in mouse liver microsomes; type: in vitro ADME; settings: 1 μM, estimated by first order kinetics
Experimental: (§1) Metabolic stability was measured by Wuxi AppTech (Shanghai, China). Briefly, peptides (1 μM, 5% MeOH in potassium phosphate buffer) were incubated with human (catalogue no. 452161 from BD Gentest) and mouse (catalogue no. M1000, Xenotech) liver microsomes at 37°C for 10 min. Liver microsomes were at a final assay concentration of 0.7 mg protein/mL. The reaction was started by the addition of 90 μL of NADP cofactor solution and stopped by the addition of 300 μL of stop solution (acetonitrile at 4°C, including 100 ng/mL tolbutamide as an internal standard) after 20 min of incubation. The samples were shaken for 5 min and then centrifuged for 20 min at 1500 g. A 100 μL aliquot of the supernatant was transferred to eight new 96-well plates with 300 μL of HPLC water and centrifuged at 1500 g for LC-MS/MS analysis (Shimadzu LC 10-AD−API 4000). An injection volume of 10 μL was added to a Phenomenex Synergi C18 column eluting with formic acid in water or acetonitrile at a flow rate of 800 μL/min. The percent loss of parent compound was calculated from the peak area ratio of the analyte/internal standard. Compounds and positive controls were tested in duplicate.

[3] = system: murine Treg cells; type: cell-based, BALB/c mice
Description: Results shown in Figures 1–3 correspond to cell-free assays where peptides can interact directly with its corresponding protein partner. However, FOXP3 binding peptides need to enter into the cell in order to inhibit FOXP3 functions. Once we identified some mutants with higher capacity to bind FOXP3, we studied their capacity to inhibit the suppressor activity of natural Tregs in vitro. Thus, we activated effector T cells with anti-CD3 monoclonal antibody in the presence of Tregs, and analyzed the capacity of each peptide to restore T cell proliferation inhibited by Treg cells. […] Indeed, when results from the point-variant screening are represented as a heat map, it is clear that introduction of an alanine at positions 2, 5 and 11 improved activity of the original P60, whereas alanine mutations at positions 1, 7, 8, 9, 10 and 12 are detrimental (Figure 4C).
Isolation of murine CD4^+CD25^+, and CD4^+CD25^− T-cells was performed from murine spleen cells by using murine regulatory T-cell isolation kit (Miltenyi Biotec, Bergisch Gladbach, Germany) according to manufacturer's instructions. The purity of the resulting T-cell populations was confirmed to be > 95% by flow cytometry.
Inhibition of murine T regulatory cell function was measured in an in vitro assay of T-cell stimulation. CD25+ depleted spleen cells (10^5 cells/well) from BALB/c mice were stimulated in vitro with 2, 5 μg/ml of anti-mouse CD3 antibody (Pharmingen) in the presence/absence of purified Treg cells (10^4 cells/well). T-cell proliferation was measured 3 days later as previously described.

[4] = Metabolic stability in human liver microsomes; type: in vitro ADME; settings: 1 μM, estimated by first order kinetics
Experimental: as §1

[5] = system: FOXP3-6His (native FOXP3, 1-421); assay: Surface plasmon resonance, peptide binding to FOXP3-coated chip; settings: for FOXP3 binding by SPR (in words): peptides at 2.5 μM, N-terminal acetylation and C-terminal amidation
Experimental: Using truncated versions of FOXP3, we attempted to identify the FOXP3 domain interacting with peptide P60, described previously by or group as a FOXP3 inhibitory peptide. Thus, besides native FOXP3 we prepared the deletion mutants FOXP3 (1-331) (lacking the C-terminus of FOXP3), FOXP3 (177-421) (lacking the N-terminus) and FOXP3 (1-177) (encompassing only the N-terminus of FOXP3) (Figure 1A). They were coated on a chip for SPR experiments.
Screening of peptide binding to FOXP3 was performed by surface plasmon resonance (SPR) using ProteOn XPR36 (Bio-Rad, Hercules CA, USA) optical biosensor. Recombinant protein FOXP3-6His and the indicated truncated versions of FOXP3 were produced and purified from E-coli and immobilized covalently onto a GLM sensor chip (Bio-Rad) using sulfo-NHS and EDC (Bio-Rad) coupling reagents. After protein immobilization, chip surface was treated with ethanolamine to deactivate the excess of reactive esters. Individual peptide solutions (1–20 μM) were injected by triplicate in running buffer (Phosphate buffered saline, 0.005% (v/v) Tween 20, pH 7.4) at a flow of 30 μl/min. The interspot signal (obtained in the chip surface not immobilized with protein) was used as reference.

[6] = molecular target: T1, FOXP3/AML1 interaction (Homo sapiens, UniProt Q9BZS1); assay: AlphaScreen FOXP3/AML1 heterodimerization assay; type: biochemical
T1 sequence (Q9BZS1 1-431): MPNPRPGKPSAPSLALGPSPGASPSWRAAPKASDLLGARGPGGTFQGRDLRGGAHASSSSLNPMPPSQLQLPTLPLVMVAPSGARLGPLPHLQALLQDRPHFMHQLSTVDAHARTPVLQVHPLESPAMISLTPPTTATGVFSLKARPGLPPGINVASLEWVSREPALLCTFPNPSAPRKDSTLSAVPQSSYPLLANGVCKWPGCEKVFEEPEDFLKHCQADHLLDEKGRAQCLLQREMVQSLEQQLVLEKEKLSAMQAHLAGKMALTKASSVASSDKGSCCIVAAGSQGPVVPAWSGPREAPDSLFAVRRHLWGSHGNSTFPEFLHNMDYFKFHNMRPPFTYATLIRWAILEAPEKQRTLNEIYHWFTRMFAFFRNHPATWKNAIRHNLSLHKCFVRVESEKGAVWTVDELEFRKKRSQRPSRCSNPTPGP
Description: (§2) AML1 is required for IL-2 and IFN-γ gene expression in conventional CD4+ T cells and its interaction with FOXP3 is needed for the immunosuppressive activity of Tregs. On the other hand, it has been described that the leucine zipper region is necessary and sufficient to mediate FOXP3 homo-dimerization, which is required for its function as a transcriptional regulator [13, 15, 20]. Thus, since P60 binds to this FOXP3 intermediate region, we analyzed if it could act as a decoy molecule to inhibit FOXP3 homodimerization or the FOXP3-AML1 heterodimerization. The capacity of FOXP3 to homodimerize was measured using the […] assay platform AlphaScreen™ (Perkin Elmer). Previous protein-cross titration experiment using different concentrations of FOXP3-6His (from 1000 to 0 nM) and GST-FOXP3 (from 300 to 0 nM) allowed us to define the optimal protein concentrations to analyze FOXP3 homodimerization (Figure 2A). […] We also tested if GST tagged FOXP3 was able to interact with AML1 protein tagged with 6 His at the N-terminus. As shown in the cross titration experiments in Figure 2C, a specific FOXP3-AML1 heterodimerization was visualized as an increase in the AlphaScreen signal.
(§3) FOXP3/AML1 heterodimerization, as well as FOXP3/FOXP3 homodimerization were analyzed by Alphascreen technology according to the manufacturer's instructions (Perkin Elmer, Benelux) as previously described.

[7] = molecular target: T2, FOXP3/FOXP3 homodimerization (GST-FOXP3 and FOXP3-His) (Homo sapiens, UniProt Q9BZS1); assay: AlphaScreen FOXP3 homodimerization assay; type: biochemical; settings: GST-FOXP3 40 nM, FOXP3-His 300 nM
T2 construct: made in house; host or cells: E. coli
T2 sequence (Q9BZS1 1-421): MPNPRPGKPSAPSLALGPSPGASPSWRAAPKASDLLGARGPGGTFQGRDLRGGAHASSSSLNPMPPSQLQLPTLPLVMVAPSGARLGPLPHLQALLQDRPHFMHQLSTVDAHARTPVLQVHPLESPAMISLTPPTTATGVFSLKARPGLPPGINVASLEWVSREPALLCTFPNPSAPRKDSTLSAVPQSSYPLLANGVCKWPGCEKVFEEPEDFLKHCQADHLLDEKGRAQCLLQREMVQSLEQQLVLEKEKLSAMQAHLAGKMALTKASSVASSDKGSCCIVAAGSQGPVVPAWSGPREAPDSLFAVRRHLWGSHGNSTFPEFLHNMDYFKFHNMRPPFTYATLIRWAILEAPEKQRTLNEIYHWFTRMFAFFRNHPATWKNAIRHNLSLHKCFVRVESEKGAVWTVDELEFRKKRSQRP
Description: as §2, §3

| IC50 [3] | Molecule | Antitumor effect / survival, single agent (in words) ([1]; CM-1215 50μg/day/mouse i.p. days 7 to 16, anti-PD1 50 μg/mice days 7 and 14) | Antitumor activity in combination with anti-PD1 (in words) ([1]; anti-PD1 50 μg days 7 and 14 plus CM-1215 50 μg/day/mouse i.p. days 7 to 16, p < 0.001) | half-life [2] | T1/2 [4] | half-life [4] | FOXP3 binding capacity by SPR (in words) ([5]; FOXP3 coated on chip, mutants compared with original P60) | Inhibition of FOXP3-AML1 heterodimerization (in words) [6] | FOXP3 binding by SPR (in words) [5] | Inhibition of FOXP3 homodimerization (in words) [7] | IC50 ([3]; in vitro cell based bioassay, read-out: IC50 to inhibit Treg activity) |
| --- | --- | --- | --- | --- | --- | --- | --- | --- | --- | --- | --- |
| 2950 nM | Ac-RAFQAFRKMWAFFAM-NH2 [P60-D2A-S5A-P11A] | – | – | – | – | – | – | significantly improved the capacity of the original P60 peptide to inhibit this interaction | improved very significantly the FOXP3 binding capacity | – | – |
| 1890 nM | Ac-RAFQAFRKMWPFFAM-NH2 [P60-D2A-S5A] | – | – | < 2.5 min | – | < 2.5 min | – | significantly improved the capacity of the original P60 peptide to inhibit this interaction | improved FOXP3 binding | – | – |
| – | H-RAFQSFRKMWPFFAM-OH [P60-D2A] | – | – | – | – | – | – | inhibited | – | inhibited | 27200 nM |

| Molecule | IC50 [3] | Antitumor effect / survival, single agent (in words) ([1]; CM-1215 50μg/day/mouse i.p. days 7 to 16, anti-PD1 50 μg/mice days 7 and 14) | Antitumor activity in combination with anti-PD1 (in words) ([1]; anti-PD1 50 μg days 7 and 14 plus CM-1215 50 μg/day/mouse i.p. days 7 to 16, p < 0.001) | half-life [2] | T1/2 [4] | half-life [4] | FOXP3 binding capacity by SPR (in words) ([5]; FOXP3 coated on chip, mutants compared with original P60) | Inhibition of FOXP3-AML1 heterodimerization (in words) [6] | FOXP3 binding by SPR (in words) [5] | Inhibition of FOXP3 homodimerization (in words) [7] | IC50 ([3]; in vitro cell based bioassay, read-out: IC50 to inhibit Treg activity) |
| --- | --- | --- | --- | --- | --- | --- | --- | --- | --- | --- | --- |
| CSCC[C@@H]1NC(=O)[C@H](C)NC(=O)[C@H](Cc2ccccc2)NC(=O)[C@H](Cc2ccccc2)NC(=O)[C@@H]2CCCN2C(=O)[C@H](Cc2c[nH]c3ccccc23)NC(=O)[C@H](CCSC)NC(=O)[C@H](CCCCN)NC(=O)[C@H](CCCNC(=N)N)NC(=O)[C@H](Cc2ccccc2)NC(=O)[C@H](C)NC(=O)[C@H](CCC(N)=O)NC(=O)[C@H](Cc2ccccc2)NC(=O)[C@H](C)NC(=O)[C@H](CCCNC(=N)N)NC1=O [CM-1215] (cyclo(RAFQAFRKMWPFFAM)) | 770 nM | some beneficial effect on the percentage of survival, this response did not reach statistical significance | exhibited antitumor activity | ~8 min | 5.30 min | ~8 min | improved very significantly its capacity to bind to FOXP3 | – | – | – | – |
